Test results reported in patent US8426604B2 (Janssen Pharmaceutica NV, priority 2010, dated 2013).

Biological target: T1, ERR1 (also known as ERR-α or ERR-1) (Homo sapiens, UniProt P11474)
T1 sequence (P11474 193-421 limits assumed): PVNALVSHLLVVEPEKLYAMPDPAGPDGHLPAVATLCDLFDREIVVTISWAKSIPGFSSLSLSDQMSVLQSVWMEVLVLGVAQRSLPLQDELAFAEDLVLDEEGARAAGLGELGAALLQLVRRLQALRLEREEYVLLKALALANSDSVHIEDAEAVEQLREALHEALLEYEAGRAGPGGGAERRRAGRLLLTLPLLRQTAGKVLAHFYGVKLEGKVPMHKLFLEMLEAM
Assay: TR-FRET assay (disruption of co-activator peptide binding)
Type: biochemical
Details: 6His-tagged ERR1LBD, GST-hSRC2 co-activator peptide; average of 3 independent experiments
Procedure: Time-Resolved Fluorescence Resonance Energy Transfer (TR-FRET) experiments were performed to examine the functional response of ERR1 (also known as ERR-α or ERR-1) ligands. The TR-FRET assay described herein relied on the conformation of ERR1 for binding to a co-activator peptide: when a test compound binds to ERR1 and alters its conformation, it can disrupt the binding of the co-activator peptide. The components of this homogeneous secondary assay included: the ^6His-tagged-ERR1LBD, a GST-labeled-hSRC2 co-activator polypeptide and a fluorescent donor/acceptor pair from CIS bio international htrf/bioassays (Bedford, Mass.) using both an α-GST Europium Cryptate (Eu) label and an α^6His-XL665 (allophycocyanin) fluorophore.
For TR-FRET measurements, the reaction was buffered in 25 mM Tris pH 8, 2.5 mM Hepes, 20 mM KCl, 1 mM DTT, and 0.05 mg/mL BSA (-lipids). The final concentrations of reagents were 6 nM of ERR1LBD, 6 nM GST-SRC-2 peptide, 30 nM Eu cryptate, and 7.5 nM XL665. Reactions were allowed to reach equilibrium at 25° C. for 4-18 hours before collecting data on the Analyst from LJL Biosystems (Molecular Devices Sunnyvale, Calif.). As a time-resolved method, the samples were excited at […] and emission was collected for 1 ms at both 615 and 665 nm with delays of 400 and 75 μs, respectively. Dose response curves were fitted using a hyperbolic equation and the data reported is the average of 3 independent experiments.

SMILES: CN1CCC(N(C)C2=NC(=O)/C(=C/c3ccc4c(cnn4Cc4ccc(Cl)cc4C(F)(F)F)c3)S2)C1 (stereo not shown) [Compound 35, 5-[1-(4-Chloro-2-trifluoromethyl-benzyl)-1H-indazol-5-ylmethylene]-2-[methyl-(1-methyl-pyrrolidin-3-yl)-amino]-thiazol-4-one]
- EC50: 18 nM

SMILES: COc1ccc(Cn2ncc3cc(/C=C4\SC(N(C)CC(O)CO)=NC4=O)ccc32)c(C(F)(F)F)c1 (stereo not shown) [Compound 13, 2-[(2,3-Dihydroxy-propyl)-methyl-amino]-5-[1-(4-methoxy-2-trifluoromethyl-benzyl)-1H-indazol-5-ylmethylene]-thiazol-4-one]
- EC50: 3.6 nM

SMILES: CN(C1=NC(=O)/C(=C/c2ccc3c(cnn3Cc3ccc(C(F)(F)F)cc3C(F)(F)F)c2)S1)C1CN[C@H](CO)C1 (stereo partly shown) [Compound 43, 5-[1-(2,4-Bis-trifluoromethyl-benzyl)-1H-indazol-5-ylmethylene]-2-[(5-hydroxymethyl-pyrrolidin-3-yl)-methyl-amino]-thiazol-4-one]
- EC50: 30 nM

SMILES: CN(C1=NC(=O)/C(=C/c2ccc3c(cnn3Cc3ccc(Cl)cc3C(F)(F)F)c2)S1)[C@@H]1CN[C@H](CO)C1 (stereo in doubt) [Compound 42, 5-[1-(4-Chloro-2-trifluoromethyl-benzyl)-1H-indazol-5-ylmethylene]-2-[(5-hydroxymethyl-pyrrolidin-3-yl)-methyl-amino]-thiazol-4-one]
- EC50: 24 nM

SMILES: CN(CC(=O)O)C1=NC(=O)/C(=C/c2ccc3c(cnn3Cc3ccc(O)cc3C(F)(F)F)c2)S1 [Compound 62, ({5-[1-(4-Hydroxy-2-trifluoromethyl-benzyl)-1H-indazol-5-ylmethylene]-4-oxo-4,5-dihydro-thiazol-2-yl}-methyl-amino)-acetic acid]
- EC50: 17 nM

SMILES: CN(CC(O)CO)C1=NC(=O)/C(=C/c2ccc3c(cnn3Cc3ccc(S(C)(=O)=O)cc3C(F)(F)F)c2)S1 (stereo not shown) [Compound 8, 2-[(2,3-Dihydroxy-propyl)-methyl-amino]-5-[1-(4-methanesulfonyl-2-trifluoromethyl-benzyl)-1H-indazol-5-ylmethylene]-thiazol-4-one]
- EC50: 520 nM

SMILES: CN(C1=NC(=O)/C(=C/c2ccc3c(cnn3Cc3ccc(C(F)(F)F)cc3C(F)(F)F)c2)S1)[C@H]1C[C@@H](CO)N(CC(N)=O)C1 [Compound 59, 2-[4-({5-[1-(2,4-Bis-trifluoromethyl-benzyl)-1H-indazol-5-ylmethylene]-4-oxo-4,5-dihydro-thiazol-2-yl}-methyl-amino)-2-hydroxymethyl-pyrrolidin-1-yl]-acetamide]
- EC50: 27 nM

SMILES: CCOC(=O)N1CCC(N(C)C2=NC(=O)/C(=C/c3ccc4c(cnn4Cc4ccc(Cl)cc4C(F)(F)F)c3)S2)CC1 [Compound 37, 4-({5-[1-(4-Chloro-2-trifluoromethyl-benzyl)-1H-indazol-5-ylmethylene]-4-oxo-4,5-dihydro-thiazol-2-yl}-methyl-amino)-piperidine-1-carboxylic acid ethyl ester]
- EC50: 69 nM

SMILES: CN(CC(O)CO)C1=NC(=O)/C(=C/c2ccc3c(cnn3Cc3ccc(Cl)cc3C(F)(F)F)c2)S1 (stereo not shown) [Compound 6, 5-[1-(4-Chloro-2-trifluoromethyl-benzyl)-1H-indazol-5-ylmethylene]-2-[(2,3-dihydroxy-propyl)-methyl-amino]-thiazol-4-one]
- EC50: 3.6 nM

SMILES: CN(CCN1CCOCC1)C1=NC(=O)/C(=C/c2ccc3c(cnn3Cc3ccc(Cl)cc3C(F)(F)F)c2)S1 [Compound 26, 5-[1-(4-Chloro-2-trifluoromethyl-benzyl)-1H-indazol-5-ylmethylene]-2-[methyl-(2-morpholin-4-yl-ethyl)-amino]-thiazol-4-one]
- EC50: 21 nM

SMILES: CN(CC(O)CN1CCCC1)C1=NC(=O)/C(=C/c2ccc3c(cnn3Cc3ccc(Cl)cc3C(F)(F)F)c2)S1 (stereo not shown) [Compound 50, 5-[1-(4-Chloro-2-trifluoromethyl-benzyl)-1H-indazol-5-ylmethylene]-2-[(2-hydroxy-3-pyrrolidin-1-yl-propyl)-methyl-amino]-thiazol-4-one]
- EC50: 23 nM

SMILES: CN(C1=NC(=O)/C(=C/c2ccc3c(cnn3Cc3ccc(Cl)cc3C(F)(F)F)c2)S1)[C@@H]1CCN(CC(N)=O)C1 [Compound 57, 2-[(3R)-3-({5-[1-(4-Chloro-2-trifluoromethyl-benzyl)-1H-indazol-5-ylmethylene]-4-oxo-4,5-dihydro-thiazol-2-yl}-methyl-amino)-pyrrolidin-1-yl]-acetamide]
- EC50: 15 nM

SMILES: CN(CC1(CO)CC1)C1=NC(=O)/C(=C/c2ccc3c(cnn3Cc3ccc(Cl)cc3C(F)(F)F)c2)S1 [Compound 36, 5-[1-(4-Chloro-2-trifluoromethyl-benzyl)-1H-indazol-5-ylmethylene]-2-[(1-hydroxymethyl-cyclopropylmethyl)-methyl-amino]-thiazol-4-one]
- EC50: 21 nM

SMILES: COCCN(CCOC)C1=NC(=O)/C(=C/c2ccc3c(cnn3Cc3ccc(OC)cc3C(F)(F)F)c2)S1 [Compound 9, 2-[Bis-(2-methoxy-ethyl)-amino]-5-[1-(4-methoxy-2-trifluoromethyl-benzyl)-1H-indazol-5-ylmethylene]-thiazol-4-one]
- EC50: 4.1 nM

SMILES: CN(C)CCN(C)C1=NC(=O)/C(=C/c2ccc3c(cnn3Cc3ccc(Cl)cc3C(F)(F)F)c2)S1 [Compound 5, 5-[1-(4-Chloro-2-trifluoromethyl-benzyl)-1H-indazol-5-ylmethylene]-2-[(2-dimethylamino-ethyl)-methyl-amino]-thiazol-4-one]
- EC50: 5.1 nM

SMILES: CN(C1=NC(=O)/C(=C/c2ccc3c(cnn3Cc3ccc(Cl)cc3C(F)(F)F)c2)S1)C1CNC1 [Compound 48, 2-(Azetidin-3-yl-methyl-amino)-5-[1-(4-chloro-2-trifluoromethyl-benzyl)-1H-indazol-5-ylmethylene]-thiazol-4-one]
- EC50: 43 nM

SMILES: CN(C)C1=NC(=O)/C(=C/c2ccc3c(cnn3Cc3ccc(C(F)(F)F)cc3C(F)(F)F)c2)S1 [Compound 1, 5-[1-(2,4-Bis-trifluoromethyl-benzyl)-1H-indazol-5-ylmethylene]-2-dimethylamino-thiazol-4-one]
- EC50: 12 nM

SMILES: CNCC(O)CN(C)C1=NC(=O)/C(=C/c2ccc3c(cnn3Cc3ccc(Cl)cc3C(F)(F)F)c2)S1 (stereo not shown) [Compound 49, 5-[1-(4-Chloro-2-trifluoromethyl-benzyl)-1H-indazol-5-ylmethylene]-2-[(2-hydroxy-3-methylamino-propyl)-methyl-amino]-thiazol-4-one]
- EC50: 41 nM

SMILES: CN(CCC#N)C1=NC(=O)/C(=C/c2ccc3c(cnn3Cc3ccc(Cl)cc3C(F)(F)F)c2)S1 [Compound 38, 3-({5-[1-(4-Chloro-2-trifluoromethyl-benzyl)-1H-indazol-5-ylmethylene]-4-oxo-4,5-dihydro-thiazol-2-yl}-methyl-amino)-propionitrile]
- EC50: 26 nM

SMILES: CN(Cc1cccnc1)C1=NC(=O)/C(=C/c2ccc3c(cnn3Cc3ccc(Cl)cc3C(F)(F)F)c2)S1 [Compound 46, 5-[1-(4-Chloro-2-trifluoromethyl-benzyl)-1H-indazol-5-ylmethylene]-2-(methyl-pyridin-3-ylmethyl-amino)-thiazol-4-one]
- EC50: 22 nM

SMILES: CN1CCN(CCN(C)C2=NC(=O)/C(=C/c3ccc4c(cnn4Cc4ccc(Cl)cc4C(F)(F)F)c3)S2)CC1 [Compound 23, 5-[1-(4-Chloro-2-trifluoromethyl-benzyl)-1H-indazol-5-ylmethylene]-2-{methyl-[2-(4-methyl-piperazin-1-yl)-ethyl]-amino}-thiazol-4-one]
- EC50: 9 nM

SMILES: COCCN(CCOC)C1=NC(=O)/C(=C/c2ccc3c(cnn3Cc3ccc(Cl)cc3C(F)(F)F)c2)S1 [Compound 14, 2-[Bis-(2-methoxy-ethyl)-amino]-5-[1-(4-chloro-2-trifluoromethyl-benzyl)-1H-indazol-5-ylmethylene]-thiazol-4-one]
- EC50: 3.3 nM

SMILES: COC[C@@H]1CC(N(C)C2=NC(=O)/C(=C/c3ccc4c(cnn4Cc4ccc(C(F)(F)F)cc4C(F)(F)F)c3)S2)CN1C (stereo partly shown) [Compound 44, 5-[1-(2,4-Bis-trifluoromethyl-benzyl)-1H-indazol-5-ylmethylene]-2-[(5-methoxymethyl-1-methyl-pyrrolidin-3-yl)-methyl-amino]-thiazol-4-one]
- EC50: 32 nM

SMILES: CN(CCO)C1=NC(=O)/C(=C/c2ccc3c(cnn3Cc3ccc(Cl)cc3C(F)(F)F)c2)S1 [Compound 30, 5-[1-(4-Chloro-2-trifluoromethyl-benzyl)-1H-indazol-5-ylmethylene]-2-[(2-hydroxy-ethyl)-methyl-amino]-thiazol-4-one]
- EC50: 12 nM

SMILES: CN(CC(=O)O)C1=NC(=O)/C(=C/c2ccc3c(cnn3Cc3ccc(C(C)(C)O)cc3C(F)(F)F)c2)S1 [Compound 61, [(5-{1-[4-(1-Hydroxy-1-methyl-ethyl)-2-trifluoromethyl-benzyl]-1H-indazol-5-ylmethylene}-4-oxo-4,5-dihydro-thiazol-2-yl)-methyl-amino]-acetic acid]
- EC50: 1200 nM
